Literature values in PMC10879402, “Comparative Study of Dermal Pharmacokinetics Between Topical Drugs Using Open Flow Microperfusion in a Pig Model” (Pharmaceutical Research, 2023).
Each block holds one molecule with its values, some of them ahead of it.

How the values were obtained:
[1] = design: method as in ref 52 (PF-06263276), ref 51 (PF-06763809); conditions: formulation used in this study (PF-06263276 4% solution, PF-06763809 2.3%); ref 52 (PF-06263276), ref 51 (PF-06763809)
[2] = design: method as in PMID 32949620; conditions: topical application of a […] cream formulation
[3] = design: method as in ref 64 (a number printed in a supplementary file, which may have a reference list of its own: not looked up in the article's list); conditions: topical brepocitinib 0.1%, 0.3%, 1% and 3%

Structure (SMILES): CCc1cc(O)c(F)cc1-c1ccc2c(-c3nc4c([nH]3)CCN(C(=O)c3cnc(N5CCCCC5)cn3)C4)n[nH]c2c1 [PF-06263276]
efficacy in human psoriasis plaque test [1]: no efficacy

dermal ruxolitinib concentration (total) [2]: 63 µM
dermal ruxolitinib concentration (unbound) [2]: 12 µM
Structure (SMILES): N#CC[C@H](C1CCCC1)n1cc(-c2ncnc3[nH]ccc23)cn1 [ruxolitinib]

Structure (SMILES): Cn1cc(Nc2nccc(N3C[C@H]4CC[C@@H](C3)N4C(=O)[C@@H]3CC3(F)F)n2)cn1 [brepocitinib]
outcome in psoriasis clinical study [3]: did not meet the primary and secondary endpoints
